In brackets after ≈: the same amount, converted by molar mass. Read-outs that look alike come from different tables or passages of the source. Peptide text beside a SMILES is read from it.
Experiments:
Botrytis cinerea = experiment: Antifungal 96-well plate assay with resazurin cell viability readout; assay type: cell-based; conditions: chemically synthesized peptides; 2-fold dilution series; 48 h incubation, then resazurin overnight; lowest concentration with no change in blue color
Method: Antifungal activity of NCR13_AlaV1-V5 was assessed at different concentrations using a 2-fold dilution series of each peptide. Antifungal activity of each peptide was determined spectrophotometrically using the 96-well plate assay. Around 45 μL of each peptide at different concentrations was added to each well of the microtiter plate containing 45 μL of ˜[…] spore suspension. The quantitative fungal growth inhibition was determined by measuring the absorbance at 595 nm using a (Tecan Infinite M200 ProTecan Systems Inc., San Jose, CA) microplate reader after 48 h. The fungal cell viability was determined by the resazurin cell viability assay. After incubation of the pathogen/peptide mixture for 48 h, 10 μl of 0.1% resazurin solution was added to each well. After incubation of the mixture overnight, a change in the color of the resazurin dye from blue to pink or colorless indicated the presence of live fungal cells. The MIC for each peptide was the lowest concentration of each peptide at which no change in blue color occurred.

[1] = system: Tricophyton metagrophytes (26103); experiment: In vitro antifungal activity (spectrophotometric) against human fungal pathogens; conditions: Pichia pastoris-expressed peptide, half-strength potato dextrose broth
Method: (§1) The in vitro antifungal activity of these peptides was determined spectrophotometrically as described in previous publications (Sagaram et al. 2013: Islam et al. 2017) in half-strength potato dextrose broth.

Candida auris (38883) = experiment: as above; conditions: Pichia pastoris-expressed peptide, half-strength potato dextrose broth
Method: as §1

Candida albicans (33795) = experiment: as above; conditions: Pichia pastoris-expressed peptide, half-strength potato dextrose broth
Method: as §1

Candida glabrata (38827) = experiment: as above; conditions: Pichia pastoris-expressed peptide, half-strength potato dextrose broth
Method: as §1

[2] = system: Tricophyton rubrum (36381); experiment: as above; conditions: Pichia pastoris-expressed peptide, half-strength potato dextrose broth
Method: as §1

| Compound | MIC (μM) Botrytis cinerea (Botrytis cinerea) | MIC (μM) Fusarium graminearum (Fusarium graminearum; 48 h) [µM] | further results |
| --- | --- | --- | --- |
| TKPCQSDKDCKKFACAAAAVPKCINGFCKCVR (SEQ ID NO: 43) [NCR13_AlaV3, Alanine scanning variant of NCR13] | Inactive | – | MIC (μM) Fusarium graminearum (Fusarium graminearum): Inactive |
| CC[C@H](C)[C@H](NC(=O)[C@H](CS)NC(=O)[C@H](C)NC(=O)[C@H](C)NC(=O)[C@H](C)NC(=O)[C@H](CCCCN)NC(=O)[C@@H]1CCCN1C(=O)[C@H](CCCCN)NC(=O)[C@H](CCCNC(=N)N)NC(=O)[C@H](CS)NC(=O)[C@H](C)NC(=O)[C@H](Cc1ccccc1)NC(=O)[C@H](CCCCN)NC(=O)[C@H](CCCCN)NC(=O)[C@H](CS)NC(=O)[C@H](CC(=O)O)NC(=O)[C@H](CCCCN)NC(=O)[C@H](CC(=O)O)NC(=O)[C@H](CO)NC(=O)[C@H](CCC(N)=O)NC(=O)[C@H](CS)NC(=O)[C@@H]1CCCN1C(=O)[C@H](CCCCN)NC(=O)[C@@H](N)[C@@H](C)O)C(=O)N[C@@H](CC(N)=O)C(=O)NCC(=O)N[C@@H](Cc1ccccc1)C(=O)N[C@@H](CS)C(=O)N[C@@H](CCCCN)C(=O)N[C@@H](CS)C(=O)N[C@H](C(=O)N[C@@H](CCCNC(=N)N)C(=O)O)C(C)C [NCR13_AlaV4] (H-TKPCQSDKDCKKFACRKPKAAACINGFCKCVR-OH; N-terminus and C-terminus assumed) | Inactive | 12 (≈ 42.6 µg/mL) | – |
| CC[C@H](C)[C@H](NC(=O)[C@H](CS)NC(=O)[C@H](CCCCN)NC(=O)[C@@H]1CCCN1C(=O)[C@@H](NC(=O)[C@H](CCCCN)NC(=O)[C@@H]1CCCN1C(=O)[C@H](CCCCN)NC(=O)[C@H](CCCNC(=N)N)NC(=O)[C@H](CS)NC(=O)[C@H](C)NC(=O)[C@H](Cc1ccccc1)NC(=O)[C@H](CCCCN)NC(=O)[C@H](CCCCN)NC(=O)[C@H](CS)NC(=O)[C@H](C)NC(=O)[C@H](C)NC(=O)[C@H](C)NC(=O)[C@H](C)NC(=O)[C@H](C)NC(=O)[C@H](CS)NC(=O)[C@@H]1CCCN1C(=O)[C@H](CCCCN)NC(=O)[C@@H](N)[C@@H](C)O)C(C)C)C(=O)N[C@@H](CC(N)=O)C(=O)NCC(=O)N[C@@H](Cc1ccccc1)C(=O)N[C@@H](CS)C(=O)N[C@@H](CCCCN)C(=O)N[C@@H](CS)C(=O)N[C@H](C(=O)N[C@@H](CCCNC(=N)N)C(=O)O)C(C)C [NCR13_AlaV1] (H-TKPCAAAAACKKFACRKPKVPKCINGFCKCVR-OH; N-terminus and C-terminus assumed) | – | 6 (≈ 20.7 µg/mL) | – |
| CC(C)[C@H](NC(=O)[C@H](CS)NC(=O)[C@H](CCCCN)NC(=O)[C@H](CS)NC(=O)[C@H](C)NC(=O)[C@H](C)NC(=O)[C@H](C)NC(=O)[C@H](C)NC(=O)[C@H](CS)NC(=O)[C@H](CCCCN)NC(=O)[C@@H]1CCCN1C(=O)[C@@H](NC(=O)[C@H](CCCCN)NC(=O)[C@@H]1CCCN1C(=O)[C@H](CCCCN)NC(=O)[C@H](CCCNC(=N)N)NC(=O)[C@H](CS)NC(=O)[C@H](C)NC(=O)[C@H](Cc1ccccc1)NC(=O)[C@H](CCCCN)NC(=O)[C@H](CCCCN)NC(=O)[C@H](CS)NC(=O)[C@H](CC(=O)O)NC(=O)[C@H](CCCCN)NC(=O)[C@H](CC(=O)O)NC(=O)[C@H](CO)NC(=O)[C@H](CCC(N)=O)NC(=O)[C@H](CS)NC(=O)[C@@H]1CCCN1C(=O)[C@H](CCCCN)NC(=O)[C@@H](N)[C@@H](C)O)C(C)C)C(=O)N[C@@H](CCCNC(=N)N)C(=O)O [NCR13_AlaV5] (H-TKPCQSDKDCKKFACRKPKVPKCAAAACKCVR-OH; N-terminus and C-terminus assumed) | – | 6 (≈ 21.1 µg/mL) | – |
| TKPCQSDKDCAAAACRKPKVPKCINGFCKCVR (SEQ ID NO: 42) [NCR13_AlaV2, Alanine scanning variant of NCR13] | Inactive | – | MIC (μM) Fusarium graminearum (Fusarium graminearum): Inactive |
| CaNCR13: Wild-type nodule specific cysteine rich peptide from chickpea, SEQ ID NO: 1, expressed in Pichia pastoris and purified by FPLC and HPLC (TKPCQSDKDCKKFACRKPKVPKCINGFCKCVR; listed as Cicer arietinum) | – | – | MIC [1]: 0.41 µM; MIC (Candida auris (38883)): 6.4 µM; MIC (Candida albicans (33795)): 3.2 µM; MIC (Candida glabrata (38827)): 0.41 µM; MIC [2]: 3.2 µM |
| CC[C@H](C)[C@H](NC(=O)[C@H](CS)NC(=O)[C@H](CCCCN)NC(=O)[C@@H]1CCCN1C(=O)[C@@H](NC(=O)[C@H](CCCCN)NC(=O)[C@@H]1CCCN1C(=O)[C@H](CCCCN)NC(=O)[C@H](CCCNC(=N)N)NC(=O)[C@H](CS)NC(=O)[C@H](C)NC(=O)[C@H](Cc1ccccc1)NC(=O)[C@H](CCCCN)NC(=O)[C@H](CCCCN)NC(=O)[C@H](CS)NC(=O)[C@H](CC(=O)O)NC(=O)[C@H](CCCCN)NC(=O)[C@H](CC(=O)O)NC(=O)[C@H](CO)NC(=O)[C@H](CCC(N)=O)NC(=O)[C@H](CS)NC(=O)[C@@H]1CCCN1C(=O)[C@H](CCCCN)NC(=O)[C@@H](N)[C@@H](C)O)C(C)C)C(=O)N[C@@H](CC(N)=O)C(=O)NCC(=O)N[C@@H](Cc1ccccc1)C(=O)N[C@@H](CS)C(=O)N[C@@H](CCCCN)C(=O)N[C@@H](CS)C(=O)N[C@H](C(=O)N[C@@H](CCCNC(=N)N)C(=O)O)C(C)C [NCR13, reference compound] (H-TKPCQSDKDCKKFACRKPKVPKCINGFCKCVR-OH; N-terminus and C-terminus assumed) | – | 6 (≈ 22 µg/mL) | – |
